Laboratory results taken from US20260207600A1, “METHODS OF TREATMENT WITH MYOSIN MODULATOR” (MYOKARDIA, INC., priority 2019, published 2026).
Several values for one entry are separate records, joined by “and”; a condition that tells them apart may be missing. Equal entries are not always repeated.

Tested on: individuals with symptomatic obstructive hypertrophic cardiomyopathy (oHCM)
Test: PIONEER-OLE Phase 2 open-label extension study of mavacamten
Type: in vivo
Method: All subjects were started on a dose of 5 mg QD.
To maximize safety, the starting dose will be 5 mg for all subjects. Subjects will return at Week 4 (±4 days) for a plasma PK sample to measure drug levels and to undergo echocardiography to determine LVOT gradient (at rest, after a Valsalva maneuver, and after exercise) and left ventricular ejection fraction (LVEF).
After Week 6, additional study visits will occur at Week 8 (±7 days), Week 12 (±7 days), and every 12 weeks (±7 days) thereafter. Subjects also will be contacted by phone in between clinic visits, at Week 18 and every 12 weeks thereafter. An end of study (EOS) visit will occur 12 weeks (±7 days) after the last administration of study drug. Visits (including the Screening visit which serves as the baseline) will entail recording vital signs, targeted physical examination, ECGs, safety laboratory tests, N-terminal pro b-type natriuretic peptide (NT-proBNP), adverse events (AEs), New York Heart Association (NYHA) functional class, Kansas City Cardiomyopathy Questionnaire (KCCQ) score, and concomitant medications. At Weeks 4, 8, 24, 36, 48, 60, 72, 96, 120, 144, 156/early termination (ET), and 168/EOS, a predose blood sample for assessment of drug concentration will be obtained. A standard TTE (including but not limited to assessment of LVOT gradient at rest and after Valsalva) will be performed at baseline, at Weeks 4, 8, 12, 24, 36, 48, 72, 96, 120, 144, 156/ET, and 168/EOS. In addition, a stress echocardiogram (with assessment of LVOT gradient post-exercise) will also be performed at baseline, Weeks 4, 48, 72, 156/ET, and 168/EOS.
The study endpoints include safety, tolerability, and select measures of efficacy using individualized dosing. Key measurements include LVOT gradient, LVEF, NT-proBNP.
• 1. Frequency and severity of treatment-emergent AEs and SAEs, • 2. Frequency of cardiovascular (CV) death, • 3. Frequency of sudden death, • 4. Frequency of CV hospitalization, • 5. Frequency of heart failure requiring the initiation of oral loop diuretics or the administration of intravenous loop diuretics, • 6. Frequency of myocardial infarction, • 7. Frequency of ventricular arrhythmias (ventricular tachycardia, ventricular fibrillation, ventricular flutter, torsade de pointe), • 8. Frequency of syncope, • 9. Frequency of seizures, • 10. Frequency of stroke, • 11. Frequency of LVEF≤45% as measured by echocardiography, • 12. QT and QTcF intervals over time.
• 1. Post-exercise, post-Valsalva, and resting LVOT gradient over time, • 2. NYHA functional class over time, • 3. KCCQ scores over time, • 4. NT-proBNP over time, • 5. Frequency of septal reduction therapy.

[1] = Change from Baseline to Week 48

CC(C)n1c(=O)cc(N[C@@H](C)c2ccccc2)[nH]c1=O [mavacamten, (S)-3-Isopropyl-6-((1-phenylethyl)amino)pyrimidine-2, 4(1H,3H)-dione]
Cardiac-related adverse events (AEs) attributed to study drug (48-week period): no cardiac-related adverse events
E/e′ lateral [1]: −3.4
NT-proBNP, median [1]: -472 pg/mL
e′lat, mean ± SD [1]: 1.6 cm/s and 1.6 ± 1.1 cm/s
IVS (Change from Baseline to Week 48, Table 1.1): −1.5 mm
E/e′ lateral (Week 12): 9.8
Interventricular septal thickness, Change from baseline, mean ± SD (Week 12): −0.7 ± 0.7 mm
Interventricular septal thickness, Mean ± SD (Week 12): 15.9 ± 2.7 mm
LV maximum wall thickness, Change from baseline, mean ± SD (Week 12): −0.8 ± 2.0 mm
LV maximum wall thickness, Mean ± SD (Week 12): 20.1 ± 2.5 mm
LV posterior wall thickness, Change from baseline, mean ± SD (Week 12): 0.2 ± 0.8 mm
LV posterior wall thickness, Mean ± SD (Week 12): 11.9 ± 2.2 mm
NT-proBNP, median (Week 12): 99 pg/mL
Systolic anterior motion of the mitral valve present, % (Week 12): (46.2) %
e′lat, mean ± SD (Week 12): 8.4 ± 2.3 cm/s
IVS (Week 12, Table 1.1): 16.0 mm
E/e′ lateral (Week 24): 10.2
Interventricular septal thickness, Change from baseline, mean ± SD (Week 24): −0.7 ± 1.1 mm
Interventricular septal thickness, Mean ± SD (Week 24): 15.8 ± 2.7 mm
LV maximum wall thickness, Change from baseline, mean ± SD (Week 24): −1.8 ± 1.8 mm
LV maximum wall thickness, Mean ± SD (Week 24): 19.1 ± 2.4 mm
LV posterior wall thickness, Change from baseline, mean ± SD (Week 24): 0.2 ± 0.9 mm
LV posterior wall thickness, Mean ± SD (Week 24): 11.8 ± 2.0 mm
NT-proBNP, median (Week 24): 93 pg/mL
Systolic anterior motion of the mitral valve present, % (Week 24): (46.2) %
e′lat, mean ± SD (Week 24): 7.9 ± 2.2 cm/s
IVS (Week 24, Table 1.1): 15.8 mm
E/e′ lateral (Week 36): 8.5
Interventricular septal thickness, Change from baseline, mean ± SD (Week 36): −1.2 ± 1.7 mm
Interventricular septal thickness, Mean ± SD (Week 36): 15.4 ± 2.7 mm
LV maximum wall thickness, Change from baseline, mean ± SD (Week 36): −1.8 ± 1.9 mm
LV maximum wall thickness, Mean ± SD (Week 36): 19.0 ± 2.2 mm
LV posterior wall thickness, Change from baseline, mean ± SD (Week 36): 0.0 ± 1.5 mm
LV posterior wall thickness, Mean ± SD (Week 36): 11.7 ± 1.7 mm
NT-proBNP, median (Week 36): 168 pg/mL
Systolic anterior motion of the mitral valve present, % (Week 36): (58.3) %
e′lat, mean ± SD (Week 36): 8.7 ± 2.8 cm/s
IVS (Week 36, Table 1.1): 15.4 mm
E/e′ lateral (Week 48): 9.1
Interventricular septal thickness, Change from baseline, mean ± SD (Week 48): −1.2 ± 2.3 mm
Interventricular septal thickness, Mean ± SD (Week 48): 15.5 ± 2.0 mm
LV maximum wall thickness, Change from baseline, mean ± SD (Week 48): −1.4 ± 2.2 mm
LV maximum wall thickness, Mean ± SD (Week 48): 19.4 ± 2.7 mm
LV posterior wall thickness, Change from baseline, mean ± SD (Week 48): −0.5 ± 1.9 mm
LV posterior wall thickness, Mean ± SD (Week 48): 11.1 ± 1.9 mm
NT-proBNP, median (Week 48): 137 pg/mL
Systolic anterior motion of the mitral valve present, % (Week 48): (33.3) %
Valsalva LVOT gradient, mean change (Week 48): −66.0 mm Hg
e′lat, mean ± SD (Week 48): 8.0 ± 1.6 cm/s
mean resting LVOT gradient (Week 48): 14.0 mm Hg
patients achieving a post-exercise LVOT gradient<30 mm Hg (Week 48): Five
post-exercise LVOT gradient, mean change (Week 48): −85.1 mm Hg
resting LVOT gradient for all subjects (Week 48): below 50 mmHg
subjects achieving asymptomatic status (NYHA Class I) (Week 48): nine out of twelve
subjects with resting LVOT gradient below the 30 mmHg threshold (Week 48): 11 of 12
IVS (Week 48, Table 1.1): 15 mm and 15.3 mm
Interventricular septal thickness, Change from baseline, mean ± SD (Week 48, listed as Mavacamten): −1.2 mm
LV maximum wall thickness, Change from baseline, mean ± SD (Week 48, listed as Mavacamten): −1.4 mm
KCCQ mean score (Week 48, scores range 0-100): 87.3
LVEF for all patients (all timepoints throughout the study): above 50%
resting LVOT gradient, mean change (baseline to Week 48): −52.7 mm Hg
Number of AEs considered potentially related to study drug (in 3 subjects): 8
number of SAEs (in 3 subjects, not cardiovascular, not related to study drug): 4
Number of AEs (most mild or moderate, and transient): 64
Tolerability (one-year treatment period): well tolerated
